This is an account of results in PMC11233931, “Remodeling tumor‐associated macrophage for anti‐cancer effects by rational design of irreversible inhibition of mitogen‐activated protein kinase‐activated protein kinase 2” (MedComm, 2024).

For orientation: inhibition means the change of the read-out against control, counted positive when it falls.

Common to all, as to assay: Eurofins kinase selectivity profile against 380 other human recombinant kinases (Table S2)
Common to all, as to type: biochemical

Experiment [1] addresses T1, 380 human recombinant protein kinases (Homo sapiens, UniProt P42336, E545K).
T1 construct: purchased Eurofins (Celle Lévescault)
Particulars: PI3 Kinase (p110α(E545K)/p85α)(h), read-out: Inhibition rate (%). Put shortly:
(§1)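 Values come from a contract kinase-profiling service that tested the compound at multiple concentrations across 380 recombinant human kinases, as an off-target check against the MK2 activity.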

Experiment [2] deals with T2, 380 human recombinant protein kinases (Homo sapiens, UniProt P27448).
T2 construct: purchased Eurofins (Celle Lévescault)
Particulars: MARK3(h), read-out: Inhibition rate. In a few lines: as §1

The target in experiment [3] is T3, 380 human recombinant protein kinases (Homo sapiens, UniProt P49841).
T3 construct: purchased Eurofins (Celle Lévescault)
Particulars: GSK3β(h), read-out: Inhibition rate. Put shortly:
as §1

Experiment [4] addresses T4, 380 human recombinant protein kinases (Homo sapiens, UniProt Q7L7X3).
T4 construct: purchased Eurofins (Celle Lévescault)
T4 sequence (Q7L7X3 1-1001): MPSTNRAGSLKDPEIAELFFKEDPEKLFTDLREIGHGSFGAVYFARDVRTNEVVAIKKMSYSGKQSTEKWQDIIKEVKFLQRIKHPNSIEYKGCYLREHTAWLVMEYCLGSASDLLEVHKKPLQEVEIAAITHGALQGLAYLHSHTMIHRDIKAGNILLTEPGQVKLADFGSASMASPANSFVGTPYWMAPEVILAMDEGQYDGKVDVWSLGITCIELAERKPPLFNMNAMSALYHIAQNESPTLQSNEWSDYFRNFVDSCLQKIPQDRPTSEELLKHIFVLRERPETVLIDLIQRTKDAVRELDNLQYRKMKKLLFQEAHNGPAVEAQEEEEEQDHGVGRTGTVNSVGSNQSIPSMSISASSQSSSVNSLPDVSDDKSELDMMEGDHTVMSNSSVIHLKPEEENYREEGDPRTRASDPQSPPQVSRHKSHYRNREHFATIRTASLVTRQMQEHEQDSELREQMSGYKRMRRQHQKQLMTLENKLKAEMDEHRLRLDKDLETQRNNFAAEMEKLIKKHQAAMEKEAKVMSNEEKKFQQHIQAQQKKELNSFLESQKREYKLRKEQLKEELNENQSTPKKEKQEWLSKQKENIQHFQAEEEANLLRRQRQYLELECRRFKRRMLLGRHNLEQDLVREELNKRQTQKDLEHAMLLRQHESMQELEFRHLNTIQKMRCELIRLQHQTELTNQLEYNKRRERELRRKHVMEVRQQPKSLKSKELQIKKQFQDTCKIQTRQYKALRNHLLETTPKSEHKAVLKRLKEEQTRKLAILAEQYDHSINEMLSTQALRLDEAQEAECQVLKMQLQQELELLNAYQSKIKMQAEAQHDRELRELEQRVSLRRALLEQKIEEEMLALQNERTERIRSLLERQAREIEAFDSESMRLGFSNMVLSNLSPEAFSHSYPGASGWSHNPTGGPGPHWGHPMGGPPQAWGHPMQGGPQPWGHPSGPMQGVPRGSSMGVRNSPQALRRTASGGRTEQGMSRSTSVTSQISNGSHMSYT
The conditions noted are these: TAO1(h), read-out: Inhibition rate (%). In a few lines:
as §1

Experiment [5] addresses T5, 380 human recombinant protein kinases (Homo sapiens, UniProt O00418).
T5 construct: purchased Eurofins (Celle Lévescault)
T5 sequence (O00418 1-725): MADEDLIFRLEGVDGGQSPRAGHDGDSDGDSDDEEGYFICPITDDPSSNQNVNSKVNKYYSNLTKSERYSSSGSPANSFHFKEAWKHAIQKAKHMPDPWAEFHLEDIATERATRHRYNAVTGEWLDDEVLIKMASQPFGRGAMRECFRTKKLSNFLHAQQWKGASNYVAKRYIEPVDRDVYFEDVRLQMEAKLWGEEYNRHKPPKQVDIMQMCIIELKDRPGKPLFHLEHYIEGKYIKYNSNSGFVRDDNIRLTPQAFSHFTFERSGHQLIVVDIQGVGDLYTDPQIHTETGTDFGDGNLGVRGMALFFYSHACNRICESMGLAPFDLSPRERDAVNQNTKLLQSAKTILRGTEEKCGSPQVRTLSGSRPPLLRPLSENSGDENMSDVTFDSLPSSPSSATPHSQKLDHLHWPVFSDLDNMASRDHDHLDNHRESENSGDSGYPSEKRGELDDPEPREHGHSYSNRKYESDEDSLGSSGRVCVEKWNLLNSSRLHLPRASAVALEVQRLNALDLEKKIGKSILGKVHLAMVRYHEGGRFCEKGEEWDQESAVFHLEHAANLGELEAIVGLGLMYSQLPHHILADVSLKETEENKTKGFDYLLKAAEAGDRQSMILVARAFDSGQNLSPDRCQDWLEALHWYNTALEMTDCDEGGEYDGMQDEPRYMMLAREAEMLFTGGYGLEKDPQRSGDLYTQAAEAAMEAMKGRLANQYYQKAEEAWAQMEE
The conditions noted are these: eEF-2K(h), read-out: Inhibition rate. Put shortly: as §1

T1 sequence (P42336 whole entry E545K): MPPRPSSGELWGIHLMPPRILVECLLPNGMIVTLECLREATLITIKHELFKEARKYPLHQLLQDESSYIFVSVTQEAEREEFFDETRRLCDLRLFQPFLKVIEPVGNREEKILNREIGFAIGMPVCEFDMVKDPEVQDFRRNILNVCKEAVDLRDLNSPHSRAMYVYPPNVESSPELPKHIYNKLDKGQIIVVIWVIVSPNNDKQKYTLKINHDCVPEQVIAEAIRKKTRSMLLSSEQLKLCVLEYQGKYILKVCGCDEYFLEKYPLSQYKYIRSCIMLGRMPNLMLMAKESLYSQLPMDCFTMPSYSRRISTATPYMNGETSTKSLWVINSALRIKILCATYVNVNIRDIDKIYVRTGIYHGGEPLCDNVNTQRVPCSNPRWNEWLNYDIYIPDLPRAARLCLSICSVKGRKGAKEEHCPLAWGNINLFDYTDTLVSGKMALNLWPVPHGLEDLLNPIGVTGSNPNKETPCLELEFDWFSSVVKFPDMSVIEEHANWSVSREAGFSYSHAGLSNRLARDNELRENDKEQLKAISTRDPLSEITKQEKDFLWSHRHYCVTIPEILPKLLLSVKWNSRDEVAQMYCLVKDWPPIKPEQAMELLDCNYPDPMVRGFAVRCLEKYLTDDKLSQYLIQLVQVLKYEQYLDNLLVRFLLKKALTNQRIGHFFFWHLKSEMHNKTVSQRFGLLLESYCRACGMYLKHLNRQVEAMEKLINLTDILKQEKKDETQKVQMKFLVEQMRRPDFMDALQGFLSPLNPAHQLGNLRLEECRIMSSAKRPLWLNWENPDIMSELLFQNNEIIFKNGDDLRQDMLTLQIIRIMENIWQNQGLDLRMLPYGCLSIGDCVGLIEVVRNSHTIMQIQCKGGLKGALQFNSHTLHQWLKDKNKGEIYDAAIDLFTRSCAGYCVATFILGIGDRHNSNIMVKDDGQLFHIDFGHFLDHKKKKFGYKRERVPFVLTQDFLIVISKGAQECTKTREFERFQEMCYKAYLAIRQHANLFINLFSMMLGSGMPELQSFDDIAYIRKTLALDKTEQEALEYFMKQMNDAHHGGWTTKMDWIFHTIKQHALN
T2 sequence (P27448 whole entry): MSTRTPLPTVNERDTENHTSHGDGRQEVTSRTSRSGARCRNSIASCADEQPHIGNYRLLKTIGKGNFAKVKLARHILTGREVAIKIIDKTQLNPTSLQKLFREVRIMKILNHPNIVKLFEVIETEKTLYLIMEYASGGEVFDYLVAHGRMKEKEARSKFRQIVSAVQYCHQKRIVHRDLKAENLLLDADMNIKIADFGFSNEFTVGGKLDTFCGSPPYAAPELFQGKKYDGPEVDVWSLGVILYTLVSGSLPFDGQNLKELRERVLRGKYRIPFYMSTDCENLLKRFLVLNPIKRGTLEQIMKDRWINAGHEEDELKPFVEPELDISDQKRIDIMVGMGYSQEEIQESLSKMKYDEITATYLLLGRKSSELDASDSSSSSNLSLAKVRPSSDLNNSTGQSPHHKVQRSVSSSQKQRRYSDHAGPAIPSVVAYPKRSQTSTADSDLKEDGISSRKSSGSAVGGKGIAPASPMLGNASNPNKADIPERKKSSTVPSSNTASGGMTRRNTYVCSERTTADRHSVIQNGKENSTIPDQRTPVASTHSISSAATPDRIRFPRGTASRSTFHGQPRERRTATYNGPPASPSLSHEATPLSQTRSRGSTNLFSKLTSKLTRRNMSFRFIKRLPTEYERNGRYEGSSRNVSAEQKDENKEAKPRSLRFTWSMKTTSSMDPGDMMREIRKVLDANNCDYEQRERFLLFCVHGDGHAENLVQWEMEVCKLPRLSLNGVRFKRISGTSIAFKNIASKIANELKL
T3 sequence (P49841 whole entry): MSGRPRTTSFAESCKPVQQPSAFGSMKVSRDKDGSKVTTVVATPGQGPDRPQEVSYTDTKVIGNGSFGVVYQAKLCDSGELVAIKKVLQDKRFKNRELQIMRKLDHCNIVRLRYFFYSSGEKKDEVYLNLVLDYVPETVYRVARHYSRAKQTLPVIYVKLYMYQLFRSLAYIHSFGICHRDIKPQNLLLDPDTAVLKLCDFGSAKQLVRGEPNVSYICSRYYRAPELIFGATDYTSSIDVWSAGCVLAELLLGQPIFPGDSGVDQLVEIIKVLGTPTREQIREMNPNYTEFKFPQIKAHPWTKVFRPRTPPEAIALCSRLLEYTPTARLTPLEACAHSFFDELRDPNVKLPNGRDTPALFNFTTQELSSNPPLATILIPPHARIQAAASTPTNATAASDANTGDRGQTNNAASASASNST

In the case of `C=CC(=O)Nc1cc(-c2cc(-c3cc4c([nH]3)CCNC4=O)ccn2)ccc1OC(F)(F)F` [compound 11], the inhibition at 0.01 µM in experiment [1] (10 nM) is 2%; in experiment [2] (10 nM) it was 2%; in experiment [3] (10 nM), -10%; in experiment [4] (10 nM), 3%; in experiment [5] (10 nM), -4%. The inhibition at 0.1 µM in experiment [1] (100 nM) is 2%; in experiment [2] (100 nM) it was -4%; in experiment [3] (100 nM), -7%; in experiment [4] (100 nM) it was 6%; in experiment [5] (100 nM) it was -10%. Moreover, the inhibition at 1 µM in experiment [1] (1000 nM) was 4%; in experiment [2] (1000 nM) it was 5%; in experiment [3] (1000 nM), 5%; in experiment [4] (1000 nM) it was 11%; in experiment [5] (1000 nM), -27%.
